According to publication PMC11947183 (Communications Biology, 2025):

Columns and labels:
MjavOBP1 = format: binding, Manis javanica; conditions: for Kd: read-out: K d (competitive binding), pH 7.4
MjavOBP2 = target: MjavOBP2; design: species or system Manis javanica; conditions: read-out: K d (competitive binding); pH 7.4
MjavOBP3 = system: MjavOBP3; design: species or system Manis javanica; conditions: read-out: IC50 (competitive binding); pH 7.4

`CC(C)=CCCC(C)=CC=O` (mixture of isomers) [citral, Citral] was tested. Which “binding to MjavOBP1 (in words)” value (MjavOBP1) did it give?
Its value is “bound weakly”.

Which Kd (MjavOBP2) does the source give for `CCCCCCCCCC(C)=O` [2-undecanone, 2-Undecanone] here?
Its Kd is 54.5 ± 10.8 µM.

What about the Kd (MjavOBP1) of the same molecule?
The Kd was 56.6 ± 4.2 µM.

How did the “binding to MjavOBP1 (in words)” value (MjavOBP1) turn out when `O=C(O)CCc1ccccc1` [3-phenylpropionic acid, 3-Phenylpropionic acid] was run?
Its value is “bound weakly”.

Which IC50 (MjavOBP3) does the source give for `CCCCCCCCC(=O)CC` [3-undecanone, 3-Undecanone] here?
The IC50 was greater than 2.23 µM.

Which IC50 (MjavOBP3) does the source give for `CCCCCC=O` [hexanal, Hexanal] here?
Its IC50 is greater than 2.23 µM.

How did the Kd (MjavOBP2) turn out when `Cc1c[nH]c2ccccc12` [skatole, 3-methylindole] was run?
The Kd was 40.8 ± 8.93 µM.

Which IC50 (MjavOBP3) does the source give for `C=CC(=C)CC/C=C(\C)CCC=C(C)C` [β-farnesene] here?
Its IC50 is greater than 2.23 µM.

How did the Kd (MjavOBP1) turn out when `CCCCCCCC1CCCC(=O)O1` (stereo not drawn) [δ-dodecalactone, δ-Dodecalactone] was run?
Its Kd is 38.7 ± 2.04 µM.
